What all share (assay type): cell-based
The test system of one assay is K562. Briefly: Antiproliferative activity (MTS assay), K562. The note with it: Homo sapiens, K562, 96 h, K562 cells. The protocol:
(§1) Antiproliferative effect is expressed as IC50 values in microMolar final concentration.
(§2) Cells were grown at 37° C. in a humidified atmosphere with 5% CO2 and 95% air. Cells were seeded in 96 well tissue culture plates.
(§3) Compound treatment started after overnight incubation of cells (TO). […] Compound was added to the plate in triplicate wells, and the plates were then incubated for 96 hours. DMSO (compounds diluents) was also included and added to the plate in control wells. Cell viability was then determined by MTS assay using CellTiter 96® AQueous non-radioactive cell proliferation assay system (Promega). A plate reader (Molecular Devices, Vmax) was used to read the optical densities, and the results were used to deduce concentration-response curves. […] The results were analyzed using linear regression software (GraphPad Prism 5; GraphPad Software Inc.).
(§4) The GI50 values (growth inhibitory activity) were determined to emphasize on the correction for the cell count at time zero; thus, the % inhibition of test drug were: [1−(T−T0)/(C−T0)]×100; and these value were used to plot the concentration-response curves, and then analyzed with linear regression software (GraphPad Prism 5).
Background: Tetrazolium dyes change colour on reduction, which living cells bring about.

In a further assay the test system is MDA-MB-468. Briefly: Antiproliferative activity (MTS assay), MDA-MB-468. The conditions noted are these: Homo sapiens, MDA-MB-468, 96 h, MDA-MB-468 cells. As to the method: as §1, §2, §3, §4
The next assay relates to Hela. The experiment in a line: Antiproliferative activity (MTS assay), Hela. The conditions noted are these: Homo sapiens, HeLa, 96 h, Hela cells. As to the method:
as §1, §2, §3, §4

The next assay has as its system MDA-MB-231. Briefly: Antiproliferative activity (MTS assay), MDA-MB-231. The conditions noted are these: Homo sapiens, MDA-MB-231, 96 h, MDA-MB-231 cells. As to the method:
as §1, §2, §3, §4

Structures are written as SMILES. Bounds are passed on as bounds.

By IC50 is commonly meant the concentration needed to halve the response being measured. The low end stands for inhibition by little substance, the high end for a need for much substance. Consider `Cc1cc(C)c(-c2csc(NC(=O)c3ccncc3)n2)c(C)n1` [Compound 44], for which the IC50 in the assay with K562 was 1.96 µM; with MDA-MB-468 it was 1.01 µM; in the assay with Hela it was greater than 10 µM; in the assay with MDA-MB-231, 1.24 µM.

Regarding `Cc1cc(C)c(-c2csc(NC(=O)c3ccccn3)n2)c(C)n1` [Compound 45], the IC50 was greater than 10 µM in the assay with K562, 7.68 µM in the assay on MDA-MB-468, greater than 10 µM in the assay with Hela and greater than 10 µM in the assay on MDA-MB-231.

As to `Cc1cc(C)c(-c2csc(NC(=O)c3cccnc3)n2)c(C)n1` [Compound 46], the IC50 was greater than 10 µM with K562, 7.19 µM with MDA-MB-468, greater than 10 µM in the assay with Hela and 7.41 µM in the assay with MDA-MB-231.

`COc1cc(-c2csc(NC(=O)c3ccnnc3)n2)ccc1O` [Compound 47]: the IC50 with K562, with MDA-MB-468, in the assay on Hela and in the assay on MDA-MB-231 was greater than 10 µM each time.

Turning to `COc1cc(-c2csc(NC(=O)c3ccncn3)n2)ccc1O` [Compound 48], the IC50 in the assay on K562, in the assay with MDA-MB-468, with Hela and in the assay with MDA-MB-231 was greater than 10 µM each time.

Turning to `COc1cc(-c2csc(NC(=O)c3ccsc3)n2)ccc1O` [Compound 49], the IC50 in the assay on K562, in the assay on MDA-MB-468, in the assay with Hela and with MDA-MB-231 was greater than 10 µM in each case.

For `COc1cc(-c2csc(NC(=O)c3cncs3)n2)ccc1O` [Compound 50], the IC50 with K562, in the assay with MDA-MB-468, in the assay on Hela and with MDA-MB-231 was greater than 10 µM in each case.

On to `COc1cc(-c2csc(NC(=O)c3ccoc3)n2)ccc1O` [Compound 51], for which the IC50 with K562, in the assay on MDA-MB-468, in the assay on Hela and in the assay on MDA-MB-231 was greater than 10 µM each time.

As for `Cc1cc(-c2ccccc2)cc(C)c1-c1csc(NC(=O)c2ccncc2)n1` [Compound 53], the IC50 with K562 came out at 0.62 µM; with MDA-MB-468 it was 0.48 µM; in the assay with Hela, 0.48 µM; in the assay on MDA-MB-231 it was 0.43 µM.

As to `COc1ccc(-c2csc(NC(=O)c3ccnc(Cl)c3)n2)cc1` [Compound 54], the IC50 with K562 was determined as 6.65 µM; with MDA-MB-468, 6.95 µM; in the assay with Hela, 5.92 µM; with MDA-MB-231, 4.56 µM.

Turning to `Cc1cc(Cl)cc(C)c1-c1csc(NC(=O)c2ccncc2)n1` [Compound 55], the IC50 in the assay on K562 worked out at 0.76 µM; in the assay on MDA-MB-468 it was 0.89 µM; with Hela it was 0.73 µM; in the assay on MDA-MB-231, 0.59 µM.

On to `N#Cc1ccc(C(=O)Nc2nc(-c3ccc(O)cc3)cs2)cc1` [Compound 56], for which the IC50 with K562, with MDA-MB-468, with Hela and with MDA-MB-231 was greater than 10 µM throughout.

Consider `O=C(Nc1nc(-c2ccc(O)cc2)cs1)c1ccncc1` [Compound 57], for which the IC50 in the assay on K562, in the assay with MDA-MB-468, with Hela and with MDA-MB-231 was greater than 10 µM in each case.

Regarding `O=C(Nc1nc(-c2ccc(O)cc2)cs1)c1ccncn1` [Compound 58], the IC50 with K562, in the assay on MDA-MB-468, with Hela and in the assay with MDA-MB-231 was greater than 10 µM throughout.

`O=C(Nc1nc(-c2ccc(O)cc2)cs1)c1ccccn1` [Compound 59]: the IC50 in the assay on K562, in the assay with MDA-MB-468, in the assay on Hela and in the assay with MDA-MB-231 was greater than 10 µM throughout.

As to `O=C(Nc1nc(-c2ccc(O)cc2)cs1)c1cccnc1` [Compound 60], the IC50 with K562, in the assay on MDA-MB-468, in the assay on Hela and in the assay with MDA-MB-231 was greater than 10 µM each time.

Consider `Cc1cc(O)ccc1-c1csc(NC(=O)c2ccc(C#N)cc2)n1` [Compound 61], for which the IC50 with K562, in the assay on MDA-MB-468, in the assay on Hela and in the assay on MDA-MB-231 was greater than 10 µM throughout.

These data come from patent publication US8946268B2, “Modulators of HEC1 activity and methods therefor” (Taivex Therapeutics, Inc., priority 2010, dated 2015).
